Measurements as given in PMC7961853 (Journal of medicinal chemistry, 2020).

Legend:
[1] = test system: GluN2C- and GluN2D-containing receptors; assay: TEVC recordings, values stated in text jointly for GluN2C/D; format: cell-based, rat; conditions: for activity at GluN2C/D in words: TEVC evaluation; for p(doubling conc.) at GluN2C/D / pEC50 at GluN2C/D: value or range over GluN2C and GluN2D; for maximum potentiation at GluN2C/D: fitted max, range over GluN2C and GluN2D, saturating co-agonists
[2] = stability as a powder or DMSO stock; format: physicochemical; conditions: room temperature under regular atmosphere; longest time tested
[3] = pharmacokinetics in mice, i.p. dosing, plasma and brain by LC/MS-MS; conditions: male, C57Bl/6, mouse, ip, 10 mg/kg
[4] = plasma protein binding by equilibrium dialysis; format: in vitro ADME, rat; conditions: 1 μM of drug
[5] = 20 mg/kg i.p., cited from earlier work
GluN1/GluN2C [6] = target: GluN1/GluN2C (Rattus norvegicus, UniProt P35439+Q00961); assay: cell-based
GluN1/GluN2C (Rattus norvegicus, UniProt P35439+Q00961), sequence (Q00961 20-1237, other chains not shown): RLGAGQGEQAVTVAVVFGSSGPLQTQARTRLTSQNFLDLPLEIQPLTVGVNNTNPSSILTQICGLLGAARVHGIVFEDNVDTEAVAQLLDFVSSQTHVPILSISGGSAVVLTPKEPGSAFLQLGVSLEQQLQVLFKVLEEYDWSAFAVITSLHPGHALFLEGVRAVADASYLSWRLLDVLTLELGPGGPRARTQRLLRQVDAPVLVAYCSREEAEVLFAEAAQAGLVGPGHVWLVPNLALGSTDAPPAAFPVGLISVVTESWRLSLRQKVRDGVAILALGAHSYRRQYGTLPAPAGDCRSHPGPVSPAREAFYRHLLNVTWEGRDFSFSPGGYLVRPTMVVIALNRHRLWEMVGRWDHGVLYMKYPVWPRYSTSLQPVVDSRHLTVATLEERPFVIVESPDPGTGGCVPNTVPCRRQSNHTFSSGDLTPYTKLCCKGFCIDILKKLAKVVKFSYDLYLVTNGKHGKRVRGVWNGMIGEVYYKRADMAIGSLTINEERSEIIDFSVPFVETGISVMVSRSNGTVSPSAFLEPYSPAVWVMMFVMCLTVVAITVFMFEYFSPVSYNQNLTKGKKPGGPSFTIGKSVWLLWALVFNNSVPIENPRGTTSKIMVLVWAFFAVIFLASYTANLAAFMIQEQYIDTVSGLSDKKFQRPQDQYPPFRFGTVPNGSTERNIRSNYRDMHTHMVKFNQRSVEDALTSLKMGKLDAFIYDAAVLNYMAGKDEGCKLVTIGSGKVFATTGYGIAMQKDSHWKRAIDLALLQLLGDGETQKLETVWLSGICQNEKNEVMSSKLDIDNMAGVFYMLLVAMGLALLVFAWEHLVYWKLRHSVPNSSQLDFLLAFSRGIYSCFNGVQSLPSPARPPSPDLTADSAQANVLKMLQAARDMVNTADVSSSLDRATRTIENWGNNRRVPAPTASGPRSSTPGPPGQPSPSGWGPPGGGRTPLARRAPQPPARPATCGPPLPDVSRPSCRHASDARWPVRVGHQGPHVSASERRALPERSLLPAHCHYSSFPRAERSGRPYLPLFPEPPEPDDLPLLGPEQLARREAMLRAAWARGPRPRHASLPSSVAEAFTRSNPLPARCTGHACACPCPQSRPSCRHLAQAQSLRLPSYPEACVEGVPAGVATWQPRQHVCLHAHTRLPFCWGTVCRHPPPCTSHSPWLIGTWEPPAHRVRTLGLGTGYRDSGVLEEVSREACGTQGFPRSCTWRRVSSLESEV

[7] = test system: GluN2A- or GluN2B-containing receptors; assay: TEVC recordings, values stated jointly for GluN2A/B; format: cell-based, rat; conditions: 10 or 30 μM compound
α4β2-nACh = format: cell-based; conditions: 10 μM compound, saturating agonist
GluN1/GluN2C [8] = target: GluN1/GluN2C (Rattus norvegicus, UniProt Q00961); conditions: percent of control, 100 μM glutamate and 30 μM glycine
GluN1/GluN2C (Rattus norvegicus, UniProt Q00961), sequence (Q00961 20-1237, other chains not shown): as above

GluN1/GluN2D = GluN1/GluN2D (Rattus norvegicus, UniProt Q62645); conditions: percent of control, 100 μM glutamate and 30 μM glycine
GluN1/GluN2D, sequence (Q62645 28-1323, other chains not shown): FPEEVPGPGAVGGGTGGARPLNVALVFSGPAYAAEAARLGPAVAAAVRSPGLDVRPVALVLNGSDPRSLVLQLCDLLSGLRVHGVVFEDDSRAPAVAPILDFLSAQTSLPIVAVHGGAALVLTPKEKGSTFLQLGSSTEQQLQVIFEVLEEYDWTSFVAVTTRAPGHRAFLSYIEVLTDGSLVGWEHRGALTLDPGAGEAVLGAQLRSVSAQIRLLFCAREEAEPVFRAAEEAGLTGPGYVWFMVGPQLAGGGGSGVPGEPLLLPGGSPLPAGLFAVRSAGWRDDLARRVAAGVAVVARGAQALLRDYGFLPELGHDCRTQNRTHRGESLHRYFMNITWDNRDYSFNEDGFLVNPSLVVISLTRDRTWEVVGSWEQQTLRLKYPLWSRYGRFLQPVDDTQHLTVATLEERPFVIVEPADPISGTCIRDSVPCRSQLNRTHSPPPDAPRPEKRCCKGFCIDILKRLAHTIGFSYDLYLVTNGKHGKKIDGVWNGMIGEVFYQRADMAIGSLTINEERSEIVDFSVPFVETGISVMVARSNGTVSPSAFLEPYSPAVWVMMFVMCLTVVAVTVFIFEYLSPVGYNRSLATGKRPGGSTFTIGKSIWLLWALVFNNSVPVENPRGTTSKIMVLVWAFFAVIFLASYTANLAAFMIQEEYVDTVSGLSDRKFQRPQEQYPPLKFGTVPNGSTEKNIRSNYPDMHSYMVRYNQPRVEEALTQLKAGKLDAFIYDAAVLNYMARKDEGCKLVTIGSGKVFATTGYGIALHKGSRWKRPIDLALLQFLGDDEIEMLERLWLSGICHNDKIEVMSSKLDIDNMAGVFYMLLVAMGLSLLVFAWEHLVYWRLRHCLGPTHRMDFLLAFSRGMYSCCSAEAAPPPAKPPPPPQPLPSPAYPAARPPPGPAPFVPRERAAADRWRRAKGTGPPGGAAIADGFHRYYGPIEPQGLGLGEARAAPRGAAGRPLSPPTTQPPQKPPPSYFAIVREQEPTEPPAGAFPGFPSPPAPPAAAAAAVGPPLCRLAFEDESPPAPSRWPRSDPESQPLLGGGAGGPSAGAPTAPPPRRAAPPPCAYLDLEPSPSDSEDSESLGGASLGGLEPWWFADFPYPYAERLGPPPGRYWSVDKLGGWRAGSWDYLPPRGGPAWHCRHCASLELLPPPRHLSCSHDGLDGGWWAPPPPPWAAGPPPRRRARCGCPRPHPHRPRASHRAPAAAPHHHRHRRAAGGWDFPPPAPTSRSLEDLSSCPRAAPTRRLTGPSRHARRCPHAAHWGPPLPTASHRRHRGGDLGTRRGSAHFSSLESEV

[9] = target: GluN2A-containing receptors; conditions: cited from earlier work

## COc1ccc(OCC2c3cc(OC)c(OC)cc3CCN2C(=O)c2cccc(Cl)c2)s1 (stereo not shown) [18a, (3-Chlorophenyl)(6,7-dimethoxy-1-(((5-methoxythiophen-2-yl)-oxy)methyl)-3,4-dihydroisoquinolin-2(1H)-yl)methanone]
[1]
  activity at GluN2C/D in words: not tolerated

## COc1ccc(OCC2c3cccn3CC(=O)N2Cc2cccc(F)c2)cc1 (stereo not shown) [EU-1180–453, 2-(3-Fluorobenzyl)-1-((4-methoxyphenoxy)methyl)-1,2-dihydropyrrolo[1,2-a]pyrazin-3(4H)-one]
[2]
  stable as a powder or a DMSO stock: at least 30 days
[3]; brain and plasma
  Tmax: 15 min
[3]; plasma
  Cmax: 695 ± 111 ng/mL
[4]
  bound to rat plasma protein: 98.7%

## COc1ccc(OCC2c3cc(OC)c(OC)cc3CCN2C(=O)c2cccc(Cl)c2)cc1 (stereo not shown) [CIQ, (3-chlorophenyl)(6,7-dimethoxy-1-((4-methoxyphenoxy)-methyl)-3,4-dihydroisoquinolin-2(1H)-yl)methanone]
[5]; 1:4:5 dimethylacetamide:PEG400:(5% dextrose in water)
  Cmax (ng/mL), plasma: 2090 ± 20 ng/mL
[5]
  t1/2 (h), plasma: 1.35 ± 0.12 h
[4]
  bound to rat plasma protein: > 99.9%

## COc1ccc(OCC2c3cccn3CCN2C(=O)c2cccc(Cl)c2)cc1 (stereo not shown) [25i, (3-Chlorophenyl)(1-((4-methoxyphenoxy)methyl)-3,4-dihydropyrrolo[1,2-a]pyrazin-2(1H)-yl)methanone]
[1]
  p(doubling conc.) at GluN2C/D: 5.8–5.9

## COc1ccc(OCC2c3occc3CCN2C(=O)c2cccc(Cl)c2)cc1 (stereo not shown) [25f, (3-Chlorophenyl)(7-((4-methoxyphenoxy)methyl)-4,7-dihydrofuro[2,3-c]pyridin-6(5H)-yl)methanone]
[1]
  p(doubling conc.) at GluN2C/D: 5.4–5.5

## COc1ccc(OCC2c3cc(OC)sc3CCN2C(=O)c2cccc(Cl)c2)cc1 (stereo not shown) [25d, (3-Chlorophenyl)(2-methoxy-4-((4-methoxyphenoxy)methyl)-6,7-dihydrothieno[3,2-c]pyridin-5(4H)-yl)methanone]
GluN1/GluN2C [6]
  EC50: 5.01 µM
GluN1/GluN2C [6]; read-out: max (%) GluN2C
  Emax: 220%

## COc1ccc(OCC2c3cc(OC)c(OC)cc3CC(=O)N2Cc2cccc(Cl)c2)cc1 (stereo not shown) [12m, 2-(3-Chlorobenzyl)-6,7-dimethoxy-1-((4-methoxyphenoxy)-methyl)-1,4-dihydroisoquinolin-3(2H)-one]
[7]
  activity at GluN2A/B in words: no activity

## COc1cc2c(cc1OC)C(CO)N(C(=O)c1cccc(C(F)(F)F)c1)CC2 (stereo not shown) [17b, (1-(Hydroxymethyl)-6,7-dimethoxy-3,4-dihydroisoquinolin-2(1H)-yl)(3-(trifluoromethyl)phenyl)methanone]
[1]
  activity at GluN2C/D in words: not tolerated

## COc1ccc(OCC2c3ccsc3CCN2C(=O)c2cccc(Cl)c2)cc1 (stereo not shown) [25h, (3-Chlorophenyl)(4-((4-methoxyphenoxy)methyl)-6,7-dihydrothieno[3,2-c]pyridin-5(4H)-yl)methanone]
[1]
  maximum potentiation at GluN2C/D: 330–340%

## COc1ccc(OCC2c3cccn3CC(=O)N2Cc2cccc(C(F)(F)F)c2)cc1 (stereo not shown) [31a, 1-((4-Methoxyphenoxy)methyl)-2-(3-(trifluoromethyl)benzyl)-1,2-dihydropyrrolo[1,2-a]pyrazin-3(4H)-one]
α4β2-nACh
  inhibition of α4β2-nACh current response: > 50%
[1]
  p(doubling conc.) at GluN2C/D: 5.9–6.1

## 1-((4-Ethoxyphenoxy)methyl)-2-(3-(trifluoromethyl)benzyl)-1,2-dihydropyrrolo[1,2-a]pyrazine-3(4H)-thione [compound 32]
GluN1/GluN2C [8]
  max (%) GluN2C, pEC50 ND: percent potentiation at 30 μM drug: ND (120) %
GluN1/GluN2D
  max (%) GluN2D, pEC50 ND: percent potentiation at 30 μM drug: ND (110) %
[1]
  activity at GluN2C/D in words: complete loss of activity

## COc1ccc(OCC2c3sccc3CCN2C(=O)c2cccc(Cl)c2)cc1 (stereo not shown) [25a, (3-Chlorophenyl)(7-((4-methoxyphenoxy)methyl)-4,7-dihydrothieno[2,3-c]pyridin-6(5H)-yl)methanone]
[7]
  activity at GluN2A/B in words: no activity
[1]
  maximum potentiation at GluN2C/D: 280–350%
  p(doubling conc.) at GluN2C/D: 5.3–5.6

## COc1ccc(OCC2c3ccc(OC)cc3CC(=O)N2CCCC(F)(F)F)cc1 (stereo not shown) [12f, 6-Methoxy-1-((4-methoxyphenoxy)methyl)-2-(4,4,4-trifluorobutyl)-1,2-dihydroisoquinolin-3(4H)-one]
[1]
  p(doubling conc.) at GluN2C/D: 5.0–5.1

## COc1ccc(OCC2c3ccc(OC)cc3CC(=O)N2CC(F)(F)F)cc1 (stereo not shown) [12g, 6-Methoxy-1-((4-methoxyphenoxy)methyl)-2-(2,2,2-trifluoroethyl)-1,2-dihydroisoquinolin-3(4H)-one]
[1]
  pEC50 at GluN2C/D: < 4.5

## COc1cc2c(cc1OC)C(COC1CCOCC1)N(C(=O)c1cccc(C(F)(F)F)c1)CC2 (stereo not shown) [18d, (6,7-Dimethoxy-1-(((tetrahydro-2H-pyran-4-yl)oxy)methyl)-3,4-dihydroisoquinolin-2(1H)-yl)(3-(trifluoromethyl)phenyl)methanone]
[1]
  activity at GluN2C/D in words: not tolerated

## COc1ccc(OCC2c3cnn(C)c3CCN2C(=O)c2cccc(Cl)c2)cc1 (stereo not shown) [25g, (3-Chlorophenyl)(4-((4-methoxyphenoxy)methyl)-1-methyl-1,4,6,7-tetrahydro-5H-pyrazolo[4,3-c]pyridin-5-yl)methanone]
[1]
  pEC50 at GluN2C/D: < 4.5

## N#C[C@@H]1C[C@H]1c1c(Cl)ccc2nc(Cn3nc(C(F)(F)F)cc3Cl)cc(=O)n12 [GNE-5729]
[9]
  EC50: 0.037 µM
